Results on 1 compound are retold here after patent US20250345439A1, “CHONDROITIN SULFATE BIOGENIC POLYAMINE COMPLEX, PREPARATION METHOD THEREOF AND USE THEREOF” (priority 2022, published 2025).

The test system of this assay is rat rheumatoid arthritis model.
[1] abbreviates: venous blood, day 14 after administration.

Take `CN(Cc1cnc2nc(N)nc(N)c2n1)c1ccc(C(=O)N[C@@H](CCC(=O)O)C(=O)O)cc1` [MTX, methotrexate]: the “degrees of swelling in the toes of rats” value (CSX of Example 2 200 mg/kg gavage daily, MTX 0.2 mg/kg gavage every other day) is recorded as “showed the desired effect of inhibiting toe swelling”. In addition, the “CT of ankle joint parts of rats” value (CSX of Example 2, MTX positive control) is “the degree of joint injury was more serious than that in the rats of the drug group (CSX)”. Further, the “bone surface (BS) of the ankle joint” value (CT) was “decreased significantly”. Under setting [1], the “absolute leukocyte count vs model group” value is “no statistical difference”, the “absolute lymphocyte count vs model group” value is given as “significantly decreased” and the “absolute neutrophil count vs model group” value is listed as “significantly decreased”.
